Columns and labels:
Assay in all cases: combination Emax (second highest fraction inhibited in the dose matrix, 72 h); higher = more inhibition; extreme values may be limits of the assay
[1] = system: AMO-1 (Plasma Cell Myeloma)
Procedure, shortened: (§1)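 Cell lines in DMEM/F12 or RPMI with 10% FBS were plated in 1536-well plates, held 24 hours at 37°C, 5% CO2, then given two-drug dose matrices for 72 hours (DMSO typically 0.2%). Viability was read by CellTiter-Glo 2.0 luminescence and scaled as inhibition from 0 (vehicle wells) to 1 (blank wells). Combination Emax is the second-highest inhibition in the matrix; Bliss excess is observed combination effect minus expected EA + EB − EA·EB, EA and EB being single-agent effects.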

[2] = system: Hs-766T (Pancreatic Carcinoma)
Procedure, shortened: as §1

[3] = system: NEC8 (Other Solid Carcinomas)
Procedure, shortened: as §1

[4] = system: SU8686 (Pancreatic Carcinoma)
Procedure, shortened: as §1

[5] = system: KARPAS-299 (T-Cell Non-Hodgkin's Lymphoma)
Procedure, shortened: as §1

[6] = system: SCC-15 (Oral Cavity Carcinoma)
Procedure, shortened: as §1

[7] = system: HSC-4 (Oral Cavity Carcinoma)
Procedure, shortened: as §1

[8] = system: HOP-62 (Lung Adenocarcinoma)
Procedure, shortened: as §1

[9] = system: NCI-H1915 (Non-Small Cell Lung Carcinoma)
Procedure, shortened: as §1

[10] = system: PANC-04-03 (Pancreatic Carcinoma)
Procedure, shortened: as §1

YH-13 (Glioblastoma) = system: YH-13 (Glioblastoma)
Procedure, shortened: as §1

D-263MG (Glioblastoma) = system: D-263MG (Glioblastoma)
Procedure, shortened: as §1

[11] = system: OVCAR-4 (Ovarian Carcinoma)
Procedure, shortened: as §1

[12] = system: BT-549 (Breast Carcinoma)
Procedure, shortened: as §1

TGW (Neuroblastoma) = system: TGW (Neuroblastoma)
Procedure, shortened: as §1

[13] = system: LU-65 (Non-Small Cell Lung Carcinoma)
Procedure, shortened: as §1

[14] = system: MLMA (Other Blood Carcinomas)
Procedure, shortened: as §1

[15] = system: Ca9-22 (Head and Neck Carcinoma)
Procedure, shortened: as §1

[16] = system: TE-1 (Esophageal Squamous Cell Carcinoma)
Procedure, shortened: as §1

[17] = system: HGC-27 (Gastric Carcinoma)
Procedure, shortened: as §1

Row | SMILES | combination Emax [1] | combination Emax [2] | combination Emax [3] | combination Emax [4] | combination Emax [5] | combination Emax [6] | combination Emax [7] | combination Emax [8] | combination Emax [9] | combination Emax [10] | combination Emax (YH-13 (Glioblastoma)) | combination Emax (D-263MG (Glioblastoma)) | combination Emax [11] | combination Emax [12] | combination Emax (TGW (Neuroblastoma)) | combination Emax [13] | combination Emax [14] | combination Emax [15] | combination Emax [16] | combination Emax [17]
1 | Cc1c2c(nn1C)CSCc1cc(n(C)n1)CSc1cc(c3ccccc3c1)OCCCc1c(C(=O)O)n(C)c3c-2c(Cl)ccc13 [AZD5991] + C1CN(CCC1(C(=O)N[C@@H](CCO)C2=CC=C(C=C2)Cl)N)C3=NC=NC4=C3C=CN4 [Capivasertib] (first compound max 1 µM, 7x7, partner max 3 µM) | 1 | 0.23 | 0.431 | 0.129 | 1 | 0.207 | 0.42 | 0.257 | 0.18 | 0.186 | 0.265 | 0.958 | 0.18 | 0.432 | 0.326 | 0.543 | 0.407 | 0.242 | 0.553 | 0.861
2 | Cc1c2c(nn1C)CSCc1cc(n(C)n1)CSc1cc(c3ccccc3c1)OCCCc1c(C(=O)O)n(C)c3c-2c(Cl)ccc13 [AZD5991] + C=CCn1c(=O)c2cnc(Nc3ccc(N4CCN(C)CC4)cc3)nc2n1-c1cccc(C(C)(C)O)n1 [AZD1775] (first compound max 1 µM, partner max 1 µM) | 1 | 0.496 | 0.851 | 0.33 | 0.992 | 0.437 | 0.507 | 0.705 | 0.649 | 0.512 | 0.411 | 0.758 | 0.742 | 0.811 | 0.806 | 0.586 | 0.952 | 0.879 | 0.89 | 0.626
3 | Cc1c2c(nn1C)CSCc1cc(n(C)n1)CSc1cc(c3ccccc3c1)OCCCc1c(C(=O)O)n(C)c3c-2c(Cl)ccc13 [AZD5991] + CC1(C)CCC(CN2CCN(c3ccc(C(=O)NS(=O)(=O)c4ccc(NCC5CCOCC5)c([N+](=O)[O-])c4)c(Oc4cnc5[nH]ccc5c4)c3)CC2)=C(c2ccc(Cl)cc2)C1 [Venetoclax] (first compound max 1 µM, 7x7, partner max 1 µM) | 1 | 0.184 | 0.793 | 0.0608 | 0.968 | 0.236 | 0.142 | 0.0765 | 0.187 | 0.175 | 0.145 | 0.863 | 0.188 | 0.45 | 0.857 | 0.393 | 0.248 | 0.725 | 0.65 | 0.895
4 | Cc1c2c(nn1C)CSCc1cc(n(C)n1)CSc1cc(c3ccccc3c1)OCCCc1c(C(=O)O)n(C)c3c-2c(Cl)ccc13 [AZD5991] + CCN(CCO)CCCOc1ccc2c(Nc3cc(CC(=O)Nc4cccc(F)c4)[nH]n3)ncnc2c1 [AZD2811] (first compound max 1 µM, 7x7, partner max 1 µM) | 1 | 0.346 | 0.33 | 0.172 | 0.987 | 0.307 | 0.404 | 0.446 | 0.294 | 0.237 | 0.579 | 0.994 | 0.506 | 0.575 | 0.402 | 0.343 | 0.245 | 0.465 | 0.676 | 1
5 | Cc1c2c(nn1C)CSCc1cc(n(C)n1)CSc1cc(c3ccccc3c1)OCCCc1c(C(=O)O)n(C)c3c-2c(Cl)ccc13 [AZD5991] + CN(C)CCCOc1ccc(-c2ccc3ncc4c(c3c2)n(C2CCOCC2)c(=O)n4C)cn1 [AZD0156] (first compound max 1 µM, 7x7, partner max 1 µM) | 1 | 0.372 | 0.291 | 0.16 | 0.978 | 0.269 | 0.197 | 0.473 | 0.439 | 0.24 | 0.254 | 0.711 | 0.279 | 0.334 | 0.293 | 0.366 | 0.397 | 0.256 | 0.635 | 0.51
6 | Cc1c2c(nn1C)CSCc1cc(n(C)n1)CSc1cc(c3ccccc3c1)OCCCc1c(C(=O)O)n(C)c3c-2c(Cl)ccc13 [AZD5991] + C[C@@H]1COCCN1C2=NC(=NC(=C2)C3(CC3)[S@](=N)(=O)C)C4=C5C=CNC5=NC=C4 [AZD6738] (first compound max 1 µM, 7x7, partner max 10 µM) | 1 | 0.574 | 0.978 | 0.353 | 1 | 0.561 | 0.678 | 0.784 | 0.504 | 0.479 | 0.46 | 0.935 | 0.713 | 0.659 | 0.714 | 0.675 | 0.697 | 0.93 | 0.747 | 0.849
7 | Cc1c2c(nn1C)CSCc1cc(n(C)n1)CSc1cc(c3ccccc3c1)OCCCc1c(C(=O)O)n(C)c3c-2c(Cl)ccc13 [AZD5991] + C[C@@H](Nc1cc(F)cc(F)c1)c1cc(C(=O)N(C)C)cc2c(=O)cc(N3CCOCC3)oc12 [AZD8186] (first compound max 1 µM, 7x7, partner max 3 µM) | 1 | 0.45 | 0.369 | 0.378 | 0.957 | 0.322 | 0.24 | 0.281 | 0.184 | 0.266 | 0.585 | 0.975 | 0.288 | 0.476 | 0.347 | 0.449 | 0.532 | 0.521 | 0.589 | 0.691
8 | Cc1c2c(nn1C)CSCc1cc(n(C)n1)CSc1cc(c3ccccc3c1)OCCCc1c(C(=O)O)n(C)c3c-2c(Cl)ccc13 [AZD5991] + Cc1cc2ncnn2cc1Nc1ncc2c(n1)n(C1CCOCC1)c(=O)n2C [AZD7648] (first compound max 1 µM, 7x7, partner max 10 µM) | 1 | 0.398 | 0.339 | 0.127 | 1 | 0.25 | 0.171 | 0.281 | 0.3 | 0.342 | 0.351 | 0.75 | 0.255 | 0.329 | 0.339 | 0.397 | 0.439 | 0.214 | 0.599 | 0.603
9 | Cc1c2c(nn1C)CSCc1cc(n(C)n1)CSc1cc(c3ccccc3c1)OCCCc1c(C(=O)O)n(C)c3c-2c(Cl)ccc13 [AZD5991] + Cn1cnc2c(F)c(Nc3ccc(Br)cc3Cl)c(C(=O)NOCCO)cc21 [Selumetinib] (first compound max 1 µM, 7x7, partner max 3 µM) | 1 | 0.595 | 0.383 | 0.334 | 0.992 | 0.322 | 0.278 | 0.426 | 0.568 | 0.432 | 0.178 | 0.634 | 0.376 | 0.258 | 0.381 | 0.716 | 0.393 | 0.581 | 0.655 | 0.306
10 | C[C@@H]1COCCN1c1cc(C2([S@](C)(=N)=O)CC2)nc(-c2ccnc3[nH]ccc23)n1 [AZD6738] + O=C(c1cc(Cc2n[nH]c(=O)c3ccccc23)ccc1F)N1CCN(C(=O)C2CC2)CC1 [Olaparib] (first compound max 10 µM, 7x7, partner max 10 µM) | 0.866 | 0.554 | 0.764 | 0.288 | 0.98 | 0.587 | 0.691 | 0.498 | 0.557 | 0.515 | 0.611 | 0.981 | 0.664 | 0.446 | 0.731 | 0.751 | 0.988 | 0.88 | 0.319 | 0.902
11 | NC1(C(=O)N[C@@H](CCO)c2ccc(Cl)cc2)CCN(c2ncnc3[nH]ccc23)CC1 [Capivasertib] + CC(=O)c1c(C)c2cnc(Nc3ccc(N4CCNCC4)cn3)nc2n(C2CCCC2)c1=O [Palbociclib] (first compound max 10 µM, 7x7, partner max 10 µM) | 0.743 | 0.36 | 0.187 | 0.07 | 0.479 | 0.35 | 0.423 | 0.572 | 0.491 | 0.261 | 0.609 | 0.448 | 0.168 | 0.391 | 0.378 | 0.448 | 0.515 | 0.442 | 0.204 | 0.874
12 | NC1(C(=O)N[C@@H](CCO)c2ccc(Cl)cc2)CCN(c2ncnc3[nH]ccc23)CC1 [Capivasertib] + CC(C)n1c(=O)n(C)c2cnc3cc(F)c(-c4ccc(OCCCN5CCCCC5)nc4)cc3c21 [AZD1390] (first compound max 10 µM, 7x7, partner max 0.3 µM) | 0.633 | 0.209 | 0.144 | 0.113 | 0.376 | 0.227 | 0.337 | 0.374 | 0.287 | 0.318 | 0.541 | 0.249 | 0.162 | 0.353 | 0.172 | 0.401 | 0.452 | 0.286 | 0.153 | 0.852
